Patent US7998948B2, “Pharmaceutical composition for treating esophageal cancer” (Eisai R&D Management Co., Ltd., priority 2007, dated 2011)

How the values were obtained:
Assay type in all cases: cell-based
[1] = system: OE33 human esophageal cancer cells; experiment: Inhibitory action against proliferation of human esophageal cancer cells (OE33); details: OE33, 72 h, 0E33 cells, RPMI1640 with 10% FBS, 3 days incubation, Cell Counting Kit-8, read-out: concentration of the test substance required to inhibit 50% of cell proliferation (IC50), 0E33
Method: (§1) Human esophageal cancer cells (OE19, OE21 and OE33) were purchased from Dainippon Sumitomo Pharma Co., Ltd. OE19, OE21 or was suspended in RPMI1640 medium (purchased from Sigma) containing 10% FBS. The cell suspension (2×10^4 cells/ml) was dispensed into a 96-well plate (purchased from FALCON; product No. 353075) by 0.1 ml/well, and incubated at 37° C. in a 5% CO2 incubator overnight. After the incubation, 0.1 ml of the test substance diluted with RPMI1640 medium containing 10% FBS was added to each well, which was further incubated for 3 days in the 5% CO2 incubator (37° C.). After the incubation, 10 μl of Cell Counting Kit-8 (purchased from DOJINDO Laboratories) was added to each well, which were incubated for about 2 hours in the 5% CO2 incubator (37° C.). After the incubation, the absorbance of the each well was measured using a plate reader MTP-500 (Corona Electric Co., Ltd) with a measurement wavelength of 450 nm and a control wavelength of 660 nm. A ratio of absorbance (%) of each well with the test substance against the wells without the test substance was determined, and based on this ratio, the concentration of the test substance required to inhibit 50% of cell proliferation (IC50; μM) was determined and the results are shown in Table 1.

[2] = system: OE19 human esophageal cancer cells; experiment: Inhibitory action against proliferation of human esophageal cancer cells (OE19); details: OE19, 72 h, 0E19 cells, RPMI1640 with 10% FBS, 3 days incubation, Cell Counting Kit-8, read-out: concentration of the test substance required to inhibit 50% of cell proliferation (IC50), 0E19
Method: as §1

[3] = system: OE21 human esophageal cancer cells; experiment: Inhibitory action against proliferation of human esophageal cancer cells (OE21); details: OE21, 72 h, 0E21 cells, RPMI1640 with 10% FBS, 3 days incubation, Cell Counting Kit-8, read-out: concentration of the test substance required to inhibit 50% of cell proliferation (IC50), 0E21
Method: as §1

Row | Compound | IC50 [1] | IC50 [2] | IC50 [3]
1 | CN1CCN(C2CCN(C(=O)Nc3cc(Oc4cc(F)c(NC(=O)C5(C(=O)Nc6ccc(F)cc6)CC5)cc4F)ccn3)CC2)CC1 [N-(2,5-Difluoro-4-{[2-({[4-(4-methylpiperazin-1-yl)piperidin-1-yl]carbonyl}amino)pyridin-4-yl]oxy}phenyl)-N′-(4-fluorophenyl)cyclopropane-1,1-dicarboxamide] | 0.67 µM | 3.5 µM | 3 µM
2 | CN1CCN(C2CCN(C(=O)Nc3cc(Oc4ccc(NC(=O)C5(C(=O)Nc6ccc(F)cc6)CC5)c(F)c4)ccn3)CC2)CC1 [N-(2-Fluoro-4-{[2-({[4-(4-methylpiperazin-1-yl)piperidin-1-yl]carbonyl}amino)pyridin-4-yl]oxy}phenyl)-N′-(4-fluorophenyl)cyclopropane-1,1-dicarboxamide] | 1.6 µM | 3.6 µM | 5.5 µM
3 | O=C(Nc1cc(Oc2cc(F)c(NC(=O)C3(C(=O)Nc4ccc(F)cc4)CC3)cc2F)ccn1)N1CC(CO)C1 [N-(2,5-Difluoro-4-{[2-({[3-(hydroxymethyl)azetidin-1-yl]carbonyl}amino)pyridin-4-yl]oxy}phenyl)-N′-(4-fluorophenyl)cyclopropane-1,1-dicarboxamide] | 0.25 µM | 3.2 µM | 7.4 µM
4 | CN1CCC(N(C)C(=O)Nc2cc(Oc3cc(F)c(NC(=O)C4(C(=O)Nc5ccc(F)cc5)CC4)cc3F)ccn2)CC1 [N-(2,5-Difluoro-4-{[2-({[methyl(1-methylpiperidin-4-yl)amino]carbonyl}amino)pyridin-4-yl]oxy}phenyl)-N′-(4-fluorophenyl)cyclopropane-1,1-dicarboxamide] | 0.14 µM | 2.3 µM | 1.7 µM
5 | O=C(Nc1cc(Oc2cc(F)c(NC(=O)C3(C(=O)Nc4ccc(F)cc4)CC3)cc2F)ccn1)N1CC(O)C1 [N-{2,5-Difluoro-4-[(2-{[(3-hydroxyazetidin-1-yl)carbonyl]amino}pyridin-4-yl)oxy]phenyl}-N′-(4-fluorophenyl)cyclopropane-1,1-dicarboxamide] | 0.24 µM | 5.2 µM | 6.4 µM
6 | O=C(Nc1cc(Oc2ccc(NC(=O)C3(C(=O)Nc4ccc(F)cc4)CC3)c(F)c2)ccn1)N1CCC1 [N-[4-({2-[(Azetidin-1-ylcarbonyl)amino]pyridin-4-yl}oxy)-2-fluorophenyl]-N′-(4-fluorophenyl)cyclopropane-1,1-dicarboxamide] | 0.18 µM | 4.2 µM | > 10 µM
